Experiments:
[1] = tested on: collagen induction arthritis model; test: Experiment 2: collagen induction arthritis model, arthritis index; format: in vivo, mice; conditions: for symptoms of arthritis: purified periandrins in the model of Experiment 2; for arthritis index (ranking 0-5), group average: 5 mg/head i.p. every other day
Protocol: Clinical symptoms of arthritis of mice in the respective groups were evaluated by one and the same observer using 6 rankings from zero to five (the larger the value is, the worse the symptom is), and the averages per the respective groups were calculated. These evaluations were performed in 0, 3rd, 4th, 5th, 6th, 7th and 8th week after the first immunity The results were shown in FIG. 3 and Table 3.

[2] = tested on: autoimmune encephalomyelitis model; test: Experiment 3: autoimmune encephalomyelitis model, clinical score; format: in vivo, rats; conditions: for symptoms of encephalomyelitis: purified periandrins in the model of Experiment 3
[3] = biological target: T1, 11 β-hydroxysteroid dehydrogenase (Rattus norvegicus, UniProt P16232); test: Experiment 5: inhibition of 11 β-hydroxysteroid dehydrogenase activity (rat liver microsome, cortisone by HPLC); format: biochemical; conditions: for inhibitory activity relative to glycirrhizin: from IC50 values; for IC50: rat liver microsome, substrate hydrocortisone, NADP 1 mM, pH 8.0, read-out: IC50 (concentration in which 50 percent of enzyme activity is inhibited)
T1 construct: Fresh rat liver was ice-cooled and homogenized in 0.25 M sucrose solution; from tissue; host or cells: rat liver microsome fraction
Protocol: In order to evaluate the effect of inhibiting 11 β-hydeoxysteroid dehydrogenase activity by the purified periandrins (PD-I, PD-II, PD-III, PD-IV) obtained in Example 4 or 5, IC 50 values (concentration in which the 50 percent of activity of the above enzyme is inhibited) of the purified periandrins were measured by the following steps I-VI.
I. An enzymatic solution containing rat liver microsome as a preparation of 11 β-hydroxysteroid dehydrogenase was prepared as below.
Fresh rat liver was ice-cooled and homogenized in 0.25 M sucrose solution. Then, at the temperature of 4° C., it was centrifuged for 20 minutes at 10,000×g.
After separating cell organelles of the nucleus, mitochondria and lysosome as deposits, the supernatant layer was further centrifuged at 105,000×g for 60 minutes at the temperature of 4° C. to obtain a microsome fraction as a precipitate.
The obtained microsome fraction was suspended by 0.25 M sucrose solution to produce an enzymatic solution, and the obtained solution was stored at the temperature of −20 degrees till the time of measurement of enzyme activity.
1 mM of NADP (product of Oriental Yeast Co., Ltd,) as a coenzyme and an amount of PD-I having a predetermined concentration (ranging from 2 to 1480 μM) as an inhibitor were added to 0.8 ml of Tris-HCI buffer solution having the concentration of 100 mM (PH8.0).
0.2 ml of the enzymatic solution prepared in step I was added to the obtained solution, and after three minutes of preincubation at 37° C., 0.02 ml of 5 mM hydrocortisone solution which was dissolved in methanol was added to start a reaction between 11 β-hydroxysteroid dehydrogenase and PD-I. The reaction was continued for 30 minutes at the temperature of 30° C., and then it was stopped by adding 0.5 ml of ethyl acetate.
This solution was centrifuged and an ethyl acetate layer was separated into an Eppendorf tube. In the mean time, cortisone and substrate hydrocortisone generated by the reaction between 11 β-hydroxysteroid dehydrogenase and substrate hydrocortisone are transferred to the ethyl acetate layer.
Furthermore, the water phase after the centrifuge was again centrifuged in the same manner as above by adding 0.5 ml of ethyl acetate to separate an ethyl acetate layer. This process was repeated two more times.
The ethyl acetate layers obtained by three time extraction were put together into an Eppendorf tube and dried using a centrifugal evaporator.
To prepare a measurement sample, 0.2 ml of methanol was added into the Eppendorf tube in which the ethyl acetate layers were dried in step II, and then the tube was left for a night so that cortisone was completely dissolved. Cortisone was determined using HPLC.
Particularly, quantity of cortisone contained in the sample was calculated from a ratio of a peak area corresponding to cortisone when the measurement sample was introduced to HPLC to a peak area when 5 μl of standard solution (0.1 mg/ml of cortisone-methanol solution) was introduced.
The measurement conditions of HPLC were as follows.
IV. Relative activity (ratio of activity remained after reaction with an inhibitor to the initial activity) of 11 β-hydroxysteroid dehydrogenase was calculated from the quantity of cortisone in accordance with the following equation. Relative activity=((CI−CBL)/(CT−CBL))×100(%) • where • CT: cortisone quantity generated when no inhibitor is added; • CI: cortisone quantity generated when an inhibitor exists; and • CBL: cortisone quantity when enzyme is not added.
V. Measurement of relative activity when PD-II, PD-III, PD-IV, and glycirrhizin were added as an inhibitor instead of PD-I was performed in the same manner as in steps I-IV.
The concentration of the inhibitor PD-I, PD-II, PD-III or PD-IV in the measurement of relative activity is a predetermined value ranging from 2 to 1480 μM. The concentration of glycirrhizin is a predetermined value ranging from 0.2 to 445 μM. […]

[4] = tested on: cytokine production; test: Experiment 6: inhibition of cytokine production by purified periandrins, same manner as Experiment 1; format: in vivo, rats; conditions: 0.1-3 mg/Kg of body weight per injection
Protocol: (§1) In this case, however, the number of groups of rats were made six, one of which includes the rats to which PD-I was injected, another of which includes the rats to which PD-II was injected, another of which includes the rats to which PD-III was injected, another of which includes the rats to which PD-IV was injected, another of which includes the rats to which prednisolone acetate was injected, and another of which includes the rats to which a solvent without any drugs was injected.
(§2) The dose per one injection of PD-I, PD-II, PD-III and PD-IV was 0.1-3 mg/Kg of body weight.
(§3) The dose per one injection of prednisolone acetate was 5 mg/Kg of body weight.

[5] = tested on: liver function; test: Experiment 6: protecting and promoting liver function by purified periandrins, same manner as Experiment 1; format: in vivo, rats; conditions: 0.1-3 mg/Kg of body weight per injection
Protocol: as §1, §2, §3

[6] = tested on: interleukin-6 (IL-6); test: Experiment 1: blood cytokine (IL-6) in mice with Propionivacterium acnes / lipopolysaccharide induced hepatopathy; format: in vivo; conditions: groups B (Brazilian licorice extract of Example 1, 25 mg), D (Chinese licorice extract of Comparative Example 1, 25 mg), F (prednisolone acetate 5 mg); i.p. four times; serum 2 h after LPS
Protocol: (§4) The following experiment was performed to examine the effects of inhibiting cytokine production and lowering GOT activity of the extracts obtained in Example 1 and Comparative Example 1. Male mice of ddy system (Japan SLC, Inc.), each of which weighs 18-20 g, are prepared for the experiment. […] 5 mg of Propionivacterium acnes suspension was injected into the vein of the aforementioned mice respectively, to cause hepatopathy. […] 10 μg of lipopolysaccharide was injected into the vein of the mice in all groups respectively, thirty minutes after the fourth injection in step II (as to the mice in group A, the injection was performed at the same timing as the mice in the other groups). Then, two hours later, blood was taken from all the mice to obtain serum. There was no visible change in weight and food and water consumption of the mice. From the serum obtained in step III, measurement of interleukin-6 (IL-6), which is a kind of cytokine, was performed. For the measurement, a commercially available measurement kit which adopts Fluorescence Linked immuno-Sorbent Assay using fluorescence labeling antibody was used. […] The measured values in Table 1 show IL-6 levels (unit: picogram) per 1 ml serum.

[7] = tested on: glutamic-oxaloacetic transaminase activity (GOT); test: Experiment 1: blood GOT activity in mice with Propionivacterium acnes / lipopolysaccharide induced hepatopathy; format: in vivo; conditions: groups B (Brazilian licorice extract, 25 mg), D (Chinese licorice extract, 25 mg), F (prednisolone acetate 5 mg); i.p. four times
Protocol: as §4, with “glutamic-oxaloacetic transaminase activity (GOT)” for “measurement of interleukin-6 (IL-6), which is a kind of cytokine,”, “measured.” for “performed.”, “Enzyme” for “Fluorescence”, “enzyme” for “fluorescence”, “Units.” for “The measured values in Table 1 show IL-6 levels (unit: picogram) per 1 ml serum.”

[8] = tested on: collagen induction arthritis model; test: Experiment 2: collagen induction arthritis model, foot pad swelling (foot pad volume); format: in vivo, mice; conditions: 5 mg/head i.p. every other day
Protocol: These evaluations were performed in 0, 3rd, 4th, 5th, 6th, 7th and 8th weeks after the first immunity. The values in FIG. 4 are relative values based on the initial hind foot pad volumes.

[9] = Experiment 4: weight changes of rats in autoimmune encephalomyelitis model; format: in vivo; conditions: 5 mg/Kg of body weight per injection
Protocol: The immunosuppressive effect of the BL. 1, BL. 2 and […].
The manner of experiment was basically the same as the aforementioned Experiment 3.
However, the number of groups of rats were reduced to five, one of which included the rats to which the BL. 1 was injected, another of which included the rats to which the BL. 2 was injected, another of which included the rats to which the BL. 3 was injected, another of which included the rats to which prednisolone acetate was injected, and another of which included the rats without injection.
The dose per one injection of BL. 1, BL. 2 and BL. 3 was 6 mg/head and in the form of physiological saline.
The dose per one injection of prednisolone acetate was 5 mg/Kg of body weight and in the form of physiological saline.

[10] = extracts of Example 2 / Comparative Example 2 6 and 12.5 mg/head, prednisolone acetate 5 mg/Kg, i.p. every other day, eight weeks

T1 sequence (P16232 whole entry): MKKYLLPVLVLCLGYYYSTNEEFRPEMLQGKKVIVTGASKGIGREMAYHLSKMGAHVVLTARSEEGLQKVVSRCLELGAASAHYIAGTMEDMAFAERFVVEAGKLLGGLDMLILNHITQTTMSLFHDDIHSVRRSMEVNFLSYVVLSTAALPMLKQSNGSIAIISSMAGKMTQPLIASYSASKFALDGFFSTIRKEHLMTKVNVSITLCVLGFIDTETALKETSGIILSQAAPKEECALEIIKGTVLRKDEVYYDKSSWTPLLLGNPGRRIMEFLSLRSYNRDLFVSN

| Compound | IC50 [3] | symptoms of arthritis [1] | symptoms of encephalomyelitis [2] | inhibitory activity relative to glycirrhizin [3] | effect of inhibiting cytokine production [4] | effect of protecting and promoting liver function [5] | also measured |
| --- | --- | --- | --- | --- | --- | --- | --- |
| CC1(C(=O)O)C=C2C3CCC4C5(CO)CCC(OC6OC(C(=O)O)C(O)C(O)C6OC6OC(C(=O)O)C(O)C(O)C6O)C(C)(C)C5CCC4(C)C3(C)CCC2(C)CC1 (centres unmarked) [PD-III, periandrin III] | 581 µM | eased the symptoms of arthritis | eased the symptoms of arthritis and encephalomyelitis | about one fifth to one twentieth of glycirrhizin | show the effects of inhibiting cytokine production | protecting and promoting liver function |  |
| CC1(C)[C@@H](O[C@H]2O[C@H](C(=O)O)[C@@H](O)[C@H](O)[C@H]2O[C@@H]2O[C@H](C(=O)O)[C@@H](O)[C@H](O)[C@H]2O)CC[C@]2(C)[C@H]3C(=O)C=C4[C@@H]5C[C@@](C)(C(=O)O)CC[C@]5(C)CC[C@@]4(C)[C@]3(C)CC[C@@H]12 [glycirrhizin, reference compound] | 26.2 µM |  |  |  |  |  |  |
| CC(=O)OCC(=O)[C@@]1(O)CC[C@H]2[C@@H]3CCC4=CC(=O)C=C[C@]4(C)[C@H]3[C@@H](O)C[C@@]21C [prednisolone acetate] |  |  |  |  |  |  | blood IL-6 level, average of eight mice [6]: 26473 picogram per 1 ml serum; blood GOT activity level, average of eight mice [7]: 350.705 Kermen Units; arthritis index (ranking 0-5), group average ([1]; 3rd week): 0; arthritis index (ranking 0-5), group average ([1]; 4th week): 0; arthritis index (ranking 0-5), group average ([1]; 5th week): 0; arthritis index (ranking 0-5), group average ([1]; 6th week): 0; arthritis index (ranking 0-5), group average ([1]; 7th week): 0.125; arthritis index (ranking 0-5), group average ([1]; 8th week): 0.125; arthritis index (ranking 0-5), group average ([1]; Primary immunity): 0; hind foot pad volume, group average, relative to initial volume ([8]; 3rd week): 99.2; hind foot pad volume, group average, relative to initial volume ([8]; 4th week): 95.2; hind foot pad volume, group average, relative to initial volume ([8]; 5th week): 101.1; hind foot pad volume, group average, relative to initial volume ([8]; 6th week): 102.4; hind foot pad volume, group average, relative to initial volume ([8]; 7th week): 95.5; hind foot pad volume, group average, relative to initial volume ([8]; 8th week): 97.9; hind foot pad volume, group average, relative to initial volume ([8]; Primary immunity): 100; time at which a few rats developed encephalomyelitis ([2]; group R, 5 mg/Kg of body weight i.p. once a day for 12 days): 8-11 days after the injection of emulsion; weight increase compared to the other groups (FIG. 6, words) [9]: had the least increase; average weight of mice (FIG. 2) [10]: reduced significantly |

Continued by falling IC50 [3], values first:

| IC50 [3] | Compound | symptoms of arthritis [1] | symptoms of encephalomyelitis [2] | inhibitory activity relative to glycirrhizin [3] | effect of inhibiting cytokine production [4] | effect of protecting and promoting liver function [5] | also measured |
| --- | --- | --- | --- | --- | --- | --- | --- |
| 240 µM | periandrin IV [PD-IV] | eased the symptoms of arthritis | eased the symptoms of arthritis and encephalomyelitis | about one fifth to one twentieth of glycirrhizin | show the effects of inhibiting cytokine production | protecting and promoting liver function |  |
| 214 µM | CC1(C)[C@@H](O[C@@H]2O[C@H](C(=O)O)[C@@H](O)[C@H](O)[C@H]2O[C@@H]2O[C@H](C(=O)O)[C@@H](O)[C@H](O)[C@H]2O)CC[C@]2(C=O)[C@H]3CC[C@@H]4C5=C[C@@](C)(C(=O)O)CC[C@]5(C)CC[C@@]4(C)[C@]3(C)CC[C@@H]12 [PD-I, periandrin I] | eased the symptoms of arthritis | eased the symptoms of arthritis and encephalomyelitis | about one fifth to one twentieth of glycirrhizin | show the effects of inhibiting cytokine production | protecting and promoting liver function |  |
| 150 µM | periandrin II [PD-II] | eased the symptoms of arthritis | eased the symptoms of arthritis and encephalomyelitis | about one fifth to one twentieth of glycirrhizin | show the effects of inhibiting cytokine production | protecting and promoting liver function |  |
